Where two headings read alike, the source gives them in different places.
System: anti-CD3/anti-CD28 (Th0) or anti-CD3/anti-CD28, IL-1β, IL-6 and IL-23 (Th17) stimulated whole blood
Test: Ex-vivo TruCulture tube assay: cytokine production in stimulated whole blood
Format: cell-based, human
Conditions: for inhibition at 1 µM: Homo sapiens
Procedure: Whole blood was received through the Celgene Donor program after informed consent and donor deidentification. All volunteers were healthy and were not on any medications for at least 72 hours prior to the blood draw. Blood was collected in sodium heparin tubes. The assay was started within 2 hours of the blood draw.
An ex-vivo stimulation of healthy donor human whole blood was performed under two different stimulation conditions. Condition Th0 was a stimulation with TruCulture® tubes containing anti-CD3/anti-CD28. Condition Th17 was a stimulation with TruCulture® tubes containing anti-CD3/anti-CD28 plus IL-1β, IL-6 and IL-23. Whole blood was separated into 15 milliliter conical tubes and pre-treated with DMSO, apremilast alone, BMS-986165 alone or BMS-986165 combined with apremilast. Final concentrations were 0.2% DMSO, 1 μM for apremilast alone, 1 μM, 0.1 μM, 0.01 μM and 0.001 μM BMS-986165 alone and in combination with 1 μM apremilast. Blood was mixed well and then incubated in a 37° C./5% CO2 incubator for 1 hour.
The anti-CD3/anti-CD28 (200 ng/ml and 330 ng/ml final concentrations respectively) TruCulture® tubes were thawed on the bench top for 30 minutes and then labeled. Plungers were pressed and then broken off. TruCulture® tubes were placed in a rack standing upright such that the plunger side is pointing down in the rack and the tube-cap is pointing up. While blood was incubating with compound Human recombinant IL-6, IL-1β and IL-23 were added to all Th17 tubes in the following concentrations: 120 ng IL-6, 120 ng IL-1b and 150 ng IL-23. One ml of the pre-treated whole blood was placed in each tube, using sterile pyrogen-free pipette tips. The cap was replaced and the contents of the tube were mixed by inverting 3 times. The tubes were immediately placed in a 37° C. heat block and incubated for 42 hours (tube-cap end). After the 42 hours the tubes were removed from the heat block, tops were unscrewed and 250 μl of the supernatant was removed and transferred into three 96-well polypropylene plates. Samples were immediately frozen at −80° C. The supernatants were then thawed at room temperature and tested neat for cytokine production by Luminex Multi-Plex MagPix technology (Millipore) or IL-22 by ELISA (Abcam). The manufacturer's procedures were followed accordingly.
Data processing for the cytokine analysis was done using Milliplex Analyst (Millipore), and raw data was exported to Excel template for the cytokine analysis. Data from the template was plotted using GraphPad Prism 7.0 (GraphPad Software, Inc., La Jolla, CA) and expressed as pg/ml or % of control. Statistical analysis was also performed using One Way Anova and Dunnett's Post Test.
To evaluate the combinatory effect of apremilast and BMS-986165, data from the two independent treatments were analyzed by comparing the combinatory response against the theoretical additive response of the two agents. The expected additive effect of two agents (A and B) was calculated using the fractional product method: (fu)A,B=(fu)A×(fu)B; where fu=fraction unaffected by treatment.

CCOc1cc([C@@H](CS(C)(=O)=O)N2C(=O)c3cccc(NC(C)=O)c3C2=O)ccc1OC [Apremilast, N-[2-[(1S)-1-(3-ethoxy-4-methoxyphenyl)-2-(methylsulfonyl)ethyl]-2,3-dihydro-1,3-dioxo-1H-isoindol-4-yl]acetamide]
inhibition at 1 µM (Th0, 1 μM apremilast, read-out: inhibition of IL-17F production): 69%
inhibition at 1 µM (Th0, 1 μM apremilast, read-out: inhibition of TNF-α levels): 90%
inhibition at 1 µM (Th17, 1 μM apremilast, read-out: inhibition of IL-17F production): 49%
inhibition at 1 µM (Th17, 1 μM apremilast, read-out: inhibition of TNF-α levels): 94%
CCL20 % of Control (Th0, 1 μM apremilast): 59.5 % of Control
GM-CSF % of Control (Th0, 1 μM apremilast): 20.3 % of Control
IFN-γ % of Control (Th0, 1 μM apremilast): 9.3 % of Control
IL-1β % of Control (Th0, 1 μM apremilast): 16.4 % of Control
IL-2 % of Control (Th0, 1 μM apremilast): 17.9 % of Control
IL-4 % of Control (Th0, 1 μM apremilast): 30.3 % of Control
IL-5 % of Control (Th0, 1 μM apremilast): 6.2 % of Control
IL-6 % of Control (Th0, 1 μM apremilast): 52.8 % of Control
IL-10 % of Control (Th0, 1 μM apremilast): 41.6 % of Control
IL-13 % of Control (Th0, 1 μM apremilast): 15.3 % of Control
IL-17A % of Control (Th0, 1 μM apremilast): 71.6 % of Control
IL-17F % of Control (Th0, 1 μM apremilast): 31.8 % of Control
IL-21 % of Control (Th0, 1 μM apremilast): 62.9 % of Control
IL-22 % of Control (Th0, 1 μM apremilast): 14.8 % of Control
IL-23 % of Control (Th0, 1 μM apremilast): 82.1 % of Control
TNF-α % of Control (Th0, 1 μM apremilast): 10.7 % of Control
inhibition of IL-17A cytokine expression (Th0, 1 μM apremilast): 28%
inhibition of IL-22 cytokine expression (Th0, 1 μM apremilast): 85%
reduction of GM-CSF cytokine expression (Th0, 1 μM apremilast): 80%
IL-17A levels (Th0, 1 μM apremilast, control 138 pg/mL): 93 pg/mL
IL-17F levels (Th0, 1 μM apremilast, control 1085 pg/mL): 368 pg/mL
TNF-α levels (Th0, 1 μM apremilast, control 1380 pg/mL): 148 pg/mL
effect on GM-CSF, statistical significance (Th0 and Th17, apremilast): significantly inhibited
CCL20 % of Control (Th17, 1 μM apremilast): 220.3 % of Control
GM-CSF % of Control (Th17, 1 μM apremilast): 33.8 % of Control
IFN-γ % of Control (Th17, 1 μM apremilast): 18.7 % of Control
IL-1β % of Control (Th17, 1 μM apremilast): 98 % of Control
IL-2 % of Control (Th17, 1 μM apremilast): 14.4 % of Control
IL-4 % of Control (Th17, 1 μM apremilast): 36.7 % of Control
IL-5 % of Control (Th17, 1 μM apremilast): 4.8 % of Control
IL-6 % of Control (Th17, 1 μM apremilast): 95.3 % of Control
IL-10 % of Control (Th17, 1 μM apremilast): 32.6 % of Control
IL-13 % of Control (Th17, 1 μM apremilast): 22.1 % of Control
IL-17A % of Control (Th17, 1 μM apremilast): 102.4 % of Control
IL-17F % of Control (Th17, 1 μM apremilast): 59.7 % of Control
IL-21 % of Control (Th17, 1 μM apremilast): 76.2 % of Control
IL-22 % of Control (Th17, 1 μM apremilast): 57.5 % of Control
IL-23 % of Control (Th17, 1 μM apremilast): 94.3 % of Control
TNF-α % of Control (Th17, 1 μM apremilast): 5.8 % of Control
effect on IL-17A cytokine expression (Th17, 1 μM apremilast): no effect
inhibition of IL-22 cytokine expression (Th17, 1 μM apremilast): 41%
reduction of GM-CSF cytokine expression (Th17, 1 μM apremilast): 66%
TNF-α levels (Th17, 1 μM apremilast, control 1436 pg/mL): 91 pg/mL
IL-17F levels (Th17, 1 μM apremilast, control 6524 pg/mL): 3643 pg/mL
effect on GM-CSF production (whole blood, Th0 and Th17): inhibited
effect on TNF-α production (whole blood, Th0 and Th17): inhibited

Reference: patent US20250235450A1, “COMBINATION THERAPIES COMPRISING APREMILAST AND TYK2 INHIBITORS” (Celgene Corporation, priority 2019, published 2025)
